Experimental findings from patent EP3454861B1, “BENZOXAZINE OR QUINAZOLINE DERIVATIVES FOR USE IN THE TREATMENT OF ALZHEIMER'S DISEASE” (Biocodex, priority 2016, dated 2017) are described below.

The subject of assay [1] is modèle murin de maladie d'Alzheimer par administration du peptide amyloïde β25-35. The experiment in a line: Spontaneous alternation test in the Y-maze (spatial working memory), Aβ25-35 mouse model. It is filed as in vivo, souris. Conditions: all doses tested (12,5, 25, 50 mg/kg per day IP), day 8, Aβ25-35 9 nmol ICV. The source says:
Soixante-douze souris males Swiss (30-35 grammes) sont utilisées. Six groupes sont constitués et soumis à différents traitements : Tableau 1. Groupes de traitement.
(§1) Le 1^er jour : une version « mélangée » (scrambled) du peptide amyloïde β25-35 (Sc.Aβ, témoin négatif) ou le peptide amyloïde β25-35 (Aβ25-35) est injecté par voie intra-cérébroventriculaire (ICV) (le peptide Aβ25-35 provoque l'intoxication cellulaire). Entre le 1^er jour et le 10^ème jour, les traitements sont administrés une fois par jour par voie intrapéritonéale (IP).
Du 8^ème au 10^ème jour, deux tests comportementaux sont effectués : • Procédure d'alternance spontanée dans le labyrinthe en Y (évaluation de la mémoire spatiale de travail) le 8^ème jour, soit 7 jours après l'injection de peptide; • Réponse d'évitement passif (évaluation de la mémoire contextuelle à long terme) avec l'entrainement le 9^ème jour et la séance de rétention le 10^ème jour.
Chaque souris est anesthésiée avec 2,5% d"isoflurane. Le peptide Aβ25-35 (9 nmol/souris) ou le peptide Sc.Aβ (9 nmol/souris) est injecté par voir ICV, dans un volume final de 3 µL/souris. […]

The next assay relates to Caspase-3. The experiment in a line: ELISA of Caspase-3 in mouse hippocampus after Aβ25-35. It is filed as in vivo, souris.
Excerpt: as §1
A la fin de la session de rétention d'évitement passif, le 10^ème jour, les animaux sont sacrifiés par décapitation. L'hippocampe et le cortex frontal sont disséqués et congelés dans l'azote liquide. L'hippocampe est utilisé pour mesurer le taux de peroxydation lipidique à l'aide d'une méthode colorimétrique et pour évaluer les taux de 4 marqueurs biochimiques par des tests ELISA. Le cortex est conservé à -80°C en attente d'analyses supplémentaires. Les plasmas sont également conservés en attente d'analyses supplémentaires. Les échantillons biologiques sont jetés après 3 mois.
Pour tous les dosages, les […] sont homogénéisés, après décongélation, dans un tampon Tris (Tris 50 mM, 150 mM NaCl, pH 7,5) et traités par ultrasons pendant 20 secondes. […] Pour chaque dosage, l'absorbance est lue à 450 nm et la concentration est calculée en utilisant la courbe standard. Les résultats sont exprimés en pg ou ng de marqueur par mg de tissu et en pourcentage de solution Sc.Aβ + véhicule. 6 échantillons par groupe (n = 36 kits ELISA) sont dosés en double.
A general note: An ELISA detects its analyte on a solid surface through an enzyme-linked reagent.

`CCNC1=Nc2ccc(Cl)cc2C(C)(c2ccccc2)O1` (stereo not shown) [Etifoxine, chlorhydratede 6-chloro-2-éthylamino-4-méthyl-4-phényl-4H-[3,1]benzoxazine]: the “déficits d'apprentissage (alternance spontanée, mémoire spatiale)” value in assay [1] is reported as “atténue de façon significative les déficits d'apprentissage”. Also, the “Expression CASP-3” value with Caspase-3 (Aβ25-35/Etifoxine 12.5 mg/kg IP) was 136,8 ± 7,2 % de Sc.Aβ/V; in the assay with Caspase-3 (Aβ25-35/Etifoxine 25 mg/kg IP), 127,3 ± 10,8 % de Sc.Aβ/V; in the assay on Caspase-3 (Aβ25-35/Etifoxine 50 mg/kg IP) it was 109,9 ± 5,6 % de Sc.Aβ/V.
